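Grown in 96-well plates, cells were treated for 48 hours with each compound at five concentrations. Insufficient inhibition: endpoint recorded as highest concentration tested. TGI is the concentration that stops growth completely.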
What was measured:
Assay in all cases: DTP human tumour cell line panel, 48 h
[1] = tested on: UO-31 renal
[2] = tested on: SK-MEL-5 melanoma
[3] = tested on: SNB-75 CNS
[4] = tested on: OVCAR-4 ovarian
[5] = tested on: NCI-H226 lung
[6] = tested on: CAKI-1 renal
[7] = tested on: K-562 leukemia
[8] = tested on: SN12C renal
[9] = tested on: LXFL 529 NSCLC
[10] = tested on: LOX IMVI melanoma
[11] = tested on: MOLT-4 leukemia
[12] = tested on: SK-MEL-28 melanoma
[13] = tested on: A549 NSCLC
[14] = tested on: ACHN renal
[15] = tested on: COLO 205 colon
[16] = tested on: NCI-H460 lung
[17] = tested on: HOP-92 NSCLC
[18] = tested on: KM20L2 colon
[19] = tested on: SF-295 CNS
[20] = tested on: SK-OV-3 ovarian
[21] = tested on: CCRF-CEM leukemia
[22] = tested on: HL-60(TB) leukemia
[23] = tested on: NCI-H23 lung
[24] = tested on: OVCAR-5 ovarian
[25] = tested on: EKVX NSCLC
[26] = tested on: A498 renal
[27] = tested on: OVCAR-3 ovarian
[28] = tested on: SK-MEL-2 melanoma
[29] = tested on: IGROV1 ovarian
[30] = tested on: TK-10 renal
[31] = tested on: M14 melanoma
[32] = tested on: UACC-62 melanoma
[33] = tested on: MALME-3M melanoma
[34] = tested on: DMS 273 small cell lung
[35] = tested on: M19-MEL melanoma
[36] = tested on: RXF 393 renal
[37] = tested on: SF-268 CNS
[38] = tested on: 786-0 renal
[39] = tested on: NCI-H522 lung
[40] = tested on: SNB-78 CNS
[41] = tested on: SNB-19 CNS
[42] = tested on: U251 CNS
[43] = tested on: HCT-116 colon
[44] = tested on: HT29 colon
[45] = tested on: UACC-257 melanoma
[46] = tested on: SW-620 colon
[47] = tested on: HOP-62 NSCLC
[48] = tested on: OVCAR-8 ovarian
[49] = tested on: SF-539 CNS
[50] = tested on: DLD-1 colon
[51] = tested on: MDA-MB-231 breast
[52] = tested on: HCT-15 colon
[53] = tested on: MDA-MB-435
[54] = tested on: MDA-N
[55] = tested on: HS 578T breast
[56] = tested on: SR leukemia
[57] = tested on: T-47D breast
[58] = tested on: KM12 colon
[59] = tested on: NCI/ADR-RES ovarian
[60] = tested on: RPMI-8226 leukemia
[61] = tested on: DU-145 prostate
[62] = tested on: PC-3 prostate
[63] = tested on: BT-549 breast
[64] = tested on: MCF7 breast
[65] = tested on: HCC-2998 colon

Structure (SMILES): CC(=O)Nc1ccc(C(=O)NN2C(=O)C(Cl)C2c2ccccc2)cc1 (stereo not drawn)
- TGI [1]: > 100 µM
- TGI [2]: > 100 µM
- TGI [3]: > 100 µM
- TGI [4]: > 100 µM
- TGI [5]: > 100 µM
- TGI [6]: > 100 µM
- TGI [7]: > 100 µM
- TGI [8]: > 100 µM
- TGI [9]: > 100 µM
- TGI [10]: > 100 µM
- TGI [11]: > 100 µM
- TGI [12]: > 100 µM
- TGI [13]: > 100 µM
- TGI [14]: > 100 µM
- TGI [15]: > 100 µM
- TGI [16]: > 100 µM
- TGI [17]: > 100 µM
- TGI [18]: > 100 µM
- TGI [19]: > 100 µM
- TGI [20]: > 100 µM
- TGI [21]: > 100 µM
- TGI [22]: > 100 µM
- TGI [23]: > 100 µM
- TGI [24]: > 100 µM
- TGI [25]: > 100 µM
- TGI [26]: > 100 µM
- TGI [27]: > 100 µM
- TGI [28]: > 100 µM
- TGI [29]: > 100 µM
- TGI [30]: > 100 µM
- TGI [31]: > 100 µM
- TGI [32]: > 100 µM
- TGI [33]: > 100 µM
- TGI [34]: > 100 µM
- TGI [35]: > 100 µM
- TGI [36]: > 100 µM
- TGI [37]: > 100 µM
- TGI [38]: > 100 µM
- TGI [39]: > 100 µM
- TGI [40]: > 100 µM
- TGI [41]: > 100 µM
- TGI [42]: > 100 µM
- TGI [43]: > 100 µM
- TGI [44]: > 100 µM
- TGI [45]: > 100 µM
- TGI [46]: > 100 µM
- TGI [47]: > 100 µM
- TGI [48]: > 100 µM
- TGI [49]: > 100 µM
- TGI [50]: > 100 µM

Structure (SMILES): Nc1nc(N)c2[nH]c(CNc3ccc(C(=O)O)cc3)nc2n1
- TGI [1]: > 100 µM
- TGI [2]: > 100 µM
- TGI [3]: > 100 µM
- TGI [4]: > 100 µM
- TGI [5]: > 100 µM
- TGI [6]: > 100 µM
- TGI [7]: > 100 µM
- TGI [51]: > 100 µM
- TGI [8]: > 100 µM
- TGI [10]: > 100 µM
- TGI [52]: > 100 µM
- TGI [53]: > 100 µM
- TGI [54]: > 100 µM
- TGI [11]: > 100 µM
- TGI [55]: > 100 µM
- TGI [12]: > 100 µM
- TGI [13]: > 100 µM
- TGI [14]: > 100 µM
- TGI [56]: > 100 µM
- TGI [15]: > 100 µM
- TGI [16]: > 100 µM
- TGI [57]: > 100 µM
- TGI [17]: > 100 µM
- TGI [58]: > 100 µM
- TGI [19]: > 100 µM
- TGI [20]: > 100 µM
- TGI [21]: > 100 µM
- TGI [22]: > 100 µM
- TGI [59]: > 100 µM
- TGI [23]: > 100 µM
- TGI [24]: > 100 µM
- TGI [25]: > 100 µM
- TGI [26]: > 100 µM
- TGI [60]: > 100 µM
- TGI [27]: > 100 µM
- TGI [28]: > 100 µM
- TGI [29]: > 100 µM
- TGI [30]: > 100 µM
- TGI [31]: > 100 µM
- TGI [32]: > 100 µM
- TGI [61]: > 100 µM
- TGI [33]: > 100 µM
- TGI [62]: > 100 µM
- TGI [63]: > 100 µM
- TGI [36]: > 100 µM
- TGI [37]: > 100 µM
- TGI [64]: > 100 µM
- TGI [38]: > 100 µM
- TGI [39]: > 100 µM
- TGI [41]: > 100 µM
- TGI [42]: > 100 µM
- TGI [43]: > 100 µM
- TGI [65]: > 100 µM
- TGI [44]: > 100 µM
- TGI [45]: > 100 µM
- TGI [46]: > 100 µM
- TGI [47]: > 100 µM
- TGI [48]: > 100 µM
- TGI [49]: > 100 µM

Structure (SMILES): COc1cc(C2c3cc4c(cc3OC(N3CCCC3)C2C)OCO4)cc(OC)c1O (stereo not drawn)
- TGI [1]: > 100 µM
- TGI [2]: 40.5 µM
- TGI [3]: 24.5 µM
- TGI [4]: > 100 µM
- TGI [5]: 80.9 µM
- TGI [6]: > 95.1 µM
- TGI [7]: > 95.7 µM
- TGI [51]: > 93.3 µM
- TGI [8]: > 83.7 µM
- TGI [10]: > 100 µM
- TGI [52]: > 100 µM
- TGI [53]: 15.2 µM
- TGI [54]: 6.17 µM
- TGI [11]: > 100 µM
- TGI [55]: 37.4 µM
- TGI [12]: > 100 µM
- TGI [13]: > 100 µM
- TGI [14]: > 100 µM
- TGI [56]: > 100 µM
- TGI [15]: 63 µM
- TGI [16]: > 100 µM
- TGI [57]: > 100 µM
- TGI [17]: > 78.5 µM
- TGI [58]: > 100 µM
- TGI [19]: 22.3 µM
- TGI [20]: 62.4 µM
- TGI [21]: > 100 µM
- TGI [22]: > 92.7 µM
- TGI [59]: 37 µM
- TGI [23]: > 82.1 µM
- TGI [24]: > 100 µM
- TGI [25]: > 80.7 µM
- TGI [26]: 56.9 µM
- TGI [60]: > 100 µM
- TGI [27]: > 65.5 µM
- TGI [28]: > 85.9 µM
- TGI [29]: > 100 µM
- TGI [30]: 58.6 µM
- TGI [31]: > 51.1 µM
- TGI [32]: > 61.6 µM
- TGI [61]: > 90 µM
- TGI [33]: > 66 µM
- TGI [62]: > 80.6 µM
- TGI [63]: 53.2 µM
- TGI [36]: > 42.7 µM
- TGI [37]: > 100 µM
- TGI [64]: > 100 µM
- TGI [38]: 59.5 µM
- TGI [39]: 19.1 µM
- TGI [41]: 38.9 µM
- TGI [42]: 42.6 µM
- TGI [43]: > 100 µM
- TGI [65]: > 94.3 µM
- TGI [44]: > 87.7 µM
- TGI [45]: > 100 µM
- TGI [46]: > 100 µM
- TGI [47]: 56.7 µM
- TGI [48]: > 100 µM
- TGI [49]: 41.2 µM

Source: PubChem BioAssay (NCI)
